BindingDB's records for doi:10.1074/jbc.M113.493767 (Novartis Institute For Tropical Diseases, 2013)
Numbered stars: 1 amine (or outer) side, 2 acyl side, 3 side chain; on linkers, the order of the positions; unused ones are H or OH. Square brackets hold non-standard residues; d marks the D form. Peptide text beside a SMILES is read from it. X1 = CC(C)([C@@H](O)CNCCCN)n1cc([C@@H](O)[C@H](N[*:1])C(=O)[*:2])c2ccccc21; Ala(3R-Me,3-isobutenyl) = CC(C)=C[C@@H](C)[C@H](N)C(=O)O; NMeLeu(5-OH,4R) = CN[C@@H](C[C@@H](C)CO)C(=O)O; Phe(βR-OMe) = CO[C@H](c1ccccc1)[C@H](N)C(=O)O; NMeL = CN[C@@H](CC(C)C)C(=O)O

Biological target: ATP-dependent Clp protease ATP-binding subunit ClpC1 (Mycobacterium tuberculosis (strain ATCC 25618 / H37Rv), UniProt P9WPC9)
Sequence (P9WPC9 whole entry): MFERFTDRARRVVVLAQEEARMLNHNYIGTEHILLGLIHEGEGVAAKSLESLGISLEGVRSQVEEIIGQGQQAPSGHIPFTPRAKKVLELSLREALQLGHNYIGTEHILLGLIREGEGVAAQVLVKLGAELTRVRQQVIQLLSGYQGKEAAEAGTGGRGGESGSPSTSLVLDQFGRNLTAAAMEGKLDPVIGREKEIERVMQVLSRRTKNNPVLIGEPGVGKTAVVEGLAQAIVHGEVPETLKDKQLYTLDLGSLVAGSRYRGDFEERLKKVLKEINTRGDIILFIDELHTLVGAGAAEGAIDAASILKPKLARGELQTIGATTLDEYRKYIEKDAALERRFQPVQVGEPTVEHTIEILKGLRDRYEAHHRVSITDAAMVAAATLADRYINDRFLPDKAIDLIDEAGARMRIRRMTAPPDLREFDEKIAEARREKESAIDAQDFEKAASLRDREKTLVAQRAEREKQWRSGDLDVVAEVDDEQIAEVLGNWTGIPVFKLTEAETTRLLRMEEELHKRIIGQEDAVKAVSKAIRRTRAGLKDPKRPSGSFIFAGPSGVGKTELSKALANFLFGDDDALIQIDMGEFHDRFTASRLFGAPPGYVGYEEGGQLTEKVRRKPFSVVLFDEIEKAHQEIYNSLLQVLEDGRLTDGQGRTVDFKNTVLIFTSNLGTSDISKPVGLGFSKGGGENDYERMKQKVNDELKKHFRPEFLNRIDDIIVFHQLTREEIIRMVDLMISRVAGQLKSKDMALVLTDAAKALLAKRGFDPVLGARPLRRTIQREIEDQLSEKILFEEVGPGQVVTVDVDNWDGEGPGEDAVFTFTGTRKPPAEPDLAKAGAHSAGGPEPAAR
Assay: Isothermal Titration Calorimetry (ITC)
Details: pH 7.5; 25 °C
Method: Isothermal titration calorimetry experiments were performed using an iTC200 (GEHealthcare) at 25 °C, with 15-20 μM ClpC1 (in 20 mM Tris-HCl, pH 7.5, 300 mM NaCl, 1 mM EDTA, 1 mM Tris(2-carboxyethyl) phosphine, 9% DMSO) in the sample cell. Typically, 19 injections of 2 μl of 150-200 μM CymA1 solution in the same bufferwere injected into the sample cell at 2.5-min intervals.

Structure (SMILES): CO[C@H](c1ccccc1)[C@@H]1NC(=O)[C@H](C)NC(=O)[C@H](C[C@@H](C)CO)N(C)C(=O)[C@H]([C@H](O)c2cn(C(C)(C)[C@@H](O)CNCCCN)c3ccccc23)NC(=O)[C@H]([C@H](C)C=C(C)C)NC(=O)[C@H](CC(C)C)N(C)C(=O)[C@H](C(C)C)NC1=O [Cyclomarin A1 (CymA1)] (cyclo(A[Phe(βR-OMe)]V[NMeL][Ala(3R-Me,3-isobutenyl)][X1][NMeLeu(5-OH,4R)]))
- Kd: 17.5 nM
